Structures are written as SMILES.

The results in this text go back to ChEMBL document CHEMBL3243984, “Methotrexate analogues. 11. Unambiguous chemical synthesis and in vitro biological evaluation of alpha- and gamma-monoesters as potential prodrugs” (J Med Chem, 1978).

One series concerns CCRF-CEM. Put plainly: Growth inhibition of human CCRF-CEM cells. The series is classed as functional.
Series [1] concerns Serum. The series can be described thus: Drug metabolism in rat serum assessed as parent compound level at 0.006 g after 48 hrs by TLC analysis. In kind it is ADME, cell-free.
The test system of series [2] is Serum. Put plainly: Drug metabolism in rat serum assessed as DBMTX level at 0.006 g after 2 hrs by TLC analysis. In kind it is ADME, cell-free.
Series [3] in a line: Drug metabolism in monkey serum assessed as parent compound level at 0.006 g after 6 hrs by TLC analysis. In kind it is ADME, cell-free, Macaca mulatta. To be noted: rhesus monkey, read-out: Drug metabolism.
A short description of series [4]: Drug metabolism in mouse serum assessed as parent compound level at 0.006 g after 48 hrs by TLC analysis. The series is classed as ADME, cell-free. To be noted: read-out: Drug metabolism.
Series [5] can be described thus: Drug metabolism in human serum assessed as parent compound level at 0.006 g after 6 hrs by TLC analysis. In kind it is ADME, cell-free. To be noted: read-out: Drug metabolism.
Series [6] deals with Serum. The series can be described thus: Drug metabolism in rat serum assessed as DBMTX level at 0.006 g after 48 hrs by TLC analysis. In kind it is ADME, cell-free.
The nature of series [7]: Drug metabolism in human serum assessed as parent compound level at 0.006 g after 24 hrs by TLC analysis. The series is classed as ADME, cell-free. To be noted: read-out: Drug metabolism.
The subject of series [8] is Serum. The series can be described thus: Drug metabolism in human serum assessed as MTX gamma-monobutyl ester level at 150 mg after 72 hrs by HPLC analysis. In kind it is ADME, cell-free.
For series [9], the system named is Serum. Put plainly: Drug metabolism in rat serum assessed as parent compound level at 0.006 g after 2 hrs by TLC analysis. In kind it is ADME, cell-free.
Series [10] has as its system Serum. Put plainly: Drug metabolism in rat serum assessed as MBMTX level at 0.006 g after 2 hrs by TLC analysis. In kind it is ADME, cell-free.
For series [11], the system named is Serum. The series can be described thus: Drug metabolism in rat serum assessed as DBMTX level at 0.006 g after 24 hrs by TLC analysis. The series is classed as ADME, cell-free.
Series [12] can be described thus: Drug metabolism in human serum assessed as parent compound level at 0.006 g after 48 hrs by TLC analysis. The series is classed as ADME, cell-free. To be noted: read-out: Drug metabolism.
Series [13] relates to Serum. Put plainly: Drug metabolism in mouse serum assessed as parent compound level at 0.006 g after 6 hrs by TLC analysis. In kind it is ADME, cell-free.
Series [14] relates to Serum. Put plainly: Drug metabolism in rat serum assessed as MBMTX level at 0.006 g after 6 hrs by TLC analysis. The series is classed as ADME, cell-free.
The test system of series [15] is Serum. Put plainly: Drug metabolism in rat serum assessed as DBMTX level at 0.006 g after 6 hrs by TLC analysis. The series is classed as ADME, cell-free.
Series [16] can be described thus: Drug metabolism in monkey serum assessed as parent compound level at 0.006 g after 2 hrs by TLC analysis. The series is classed as ADME, cell-free, Macaca mulatta. To be noted: rhesus monkey, read-out: Drug metabolism.
A short description of series [17]: Drug metabolism in monkey serum assessed as parent compound level at 0.006 g after 24 hrs by TLC analysis. In kind it is ADME, cell-free, Macaca mulatta. To be noted: rhesus monkey, read-out: Drug metabolism.
Series [18] is described as follows: Drug metabolism in human serum assessed as parent compound level at 0.006 g after 2 hrs by TLC analysis. The series is classed as ADME, cell-free. To be noted: read-out: Drug metabolism.
Series [19] has as its system Serum. Put plainly: Drug metabolism in rat serum assessed as MBMTX level at 0.006 g after 24 hrs by TLC analysis. The series is classed as ADME, cell-free.
In series [20] the test system is Serum. The series can be described thus: Drug metabolism in rat serum assessed as MBMTX level at 0.006 g after 48 hrs by TLC analysis. In kind it is ADME, cell-free.
The nature of series [21]: Drug metabolism in monkey serum assessed as parent compound level at 0.006 g after 48 hrs by TLC analysis. The series is classed as ADME, cell-free, Macaca mulatta. To be noted: rhesus monkey, read-out: Drug metabolism.
The target of series [22] is T1, Dihydrofolate reductase (Oryctolagus cuniculus) (UniProt C1JLF0).
T1 sequence (whole entry): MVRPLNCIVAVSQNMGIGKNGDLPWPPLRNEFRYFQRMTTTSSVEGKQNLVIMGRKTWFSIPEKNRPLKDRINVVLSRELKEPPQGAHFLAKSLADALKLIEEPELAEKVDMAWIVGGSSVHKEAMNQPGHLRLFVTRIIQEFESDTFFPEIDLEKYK
The series can be described thus: Inhibition of rabbit liver dihydrofolate reductase using [3H]-folic acid after 10 mins by scintillation counting.

Series [23] has as its system Serum. The series can be described thus: Drug metabolism in mouse serum assessed as parent compound level at 0.006 g after 2 hrs by TLC analysis. In kind it is ADME, cell-free.
The test system of series [24] is Serum. The series can be described thus: Drug metabolism in rat serum assessed as parent compound level at 0.006 g after 24 hrs by TLC analysis. The series is classed as ADME, cell-free.
The test system of series [25] is Serum. The series can be described thus: Drug metabolism in human serum assessed as MTX alpha-monobutyl ester level at 150 mg after 72 hrs by HPLC analysis. The series is classed as ADME, cell-free.
Series [26] can be described thus: Drug metabolism in mouse serum assessed as parent compound level at 0.006 g after 24 hrs by TLC analysis. The series is classed as ADME, cell-free. To be noted: read-out: Drug metabolism.
The subject of series [27] is Serum. The series can be described thus: Drug metabolism in rat serum assessed as parent compound level at 0.006 g after 6 hrs by TLC analysis. The series is classed as ADME, cell-free.
Series [28] deals with Serum. Put plainly: Retention time in human serum at 150 mg after 72 hrs by HPLC analysis. The series is classed as ADME, cell-free.

In the case of `COC(=O)CC[C@H](NC(=O)c1ccc(N(C)Cc2cnc3nc(N)nc(N)c3n2)cc1)C(=O)O`, in the series on CCRF-CEM, the ID50 was 0.43 ×10⁻⁶ mol/L.

Consider `CCCCOC(=O)CC[C@H](NC(=O)c1ccc(N(C)Cc2cnc3nc(N)nc(N)c3n2)cc1)C(=O)OCCCC`, for which the Drug metabolism result in the series with Serum [1], in the series with Serum [2], with Serum [6], with Serum [8], with Serum [9] and in the series with Serum [10] was “metabolite_detected” in each case. In addition, the Drug metabolism entry in the series with Serum [11] is listed as “metabolite_detected”; with Serum [13], 46%; in the series with Serum [14] it was “metabolite_detected”; with Serum [15], “metabolite_detected”; in the series with Serum [19], “metabolite_detected”; in the series with Serum [20], “metabolite_detected”. Besides, the Drug metabolism in the series with Serum [23] was 43%; in the series with Serum [24], “metabolite_detected”; in the series with Serum [25] it was “metabolite_detected”; in the series on Serum [27], “metabolite_detected”. Besides, the remaining at 6 h in [3] and in [5] was less than 1% throughout. Moreover, the results for the remaining at 48 h in [4], in series [12] and in series [21] were 93%, less than 1% and 2%, respectively. The values for the remaining at 24 h in [7], in series [17] and in [26] were 1%, less than 1% and 89%, respectively. In addition, the ID50 worked out at 0.057 ×10⁻⁶ mol/L with CCRF-CEM and 1.4 ×10⁻⁷ mol/L in [22]. For the same molecule, the remaining at 2 h in [16] and in series [18] was less than 1% throughout.

As for `CCOC(=O)CC[C@H](NC(=O)c1ccc(N(C)Cc2cnc3nc(N)nc(N)c3n2)cc1)C(=O)OCC`, in the series with CCRF-CEM, the ID50 came out at 0.012 ×10⁻⁶ mol/L.

For `CCOC(=O)CC[C@H](NC(=O)c1ccc(N(C)Cc2cnc3nc(N)nc(N)c3n2)cc1)C(=O)O`, the ID50 in the series on CCRF-CEM is listed as 0.58 ×10⁻⁶ mol/L.

Molecule `CN(Cc1cnc2nc(N)nc(N)c2n1)c1ccc(C(=O)N[C@@H](CCC(=O)O)C(=O)O)cc1` [METHOTREXATE] returned a Retention_time in the series with Serum [28] of 2 min. Also, the ID50 was 0.006 ×10⁻⁶ mol/L with CCRF-CEM and 9 ×10⁻⁹ mol/L in [22].

In turn, `COC(=O)CC[C@H](NC(=O)c1ccc(N(C)Cc2cnc3nc(N)nc(N)c3n2)cc1)C(=O)OC` had an ID50 in the series with CCRF-CEM of 0.4 ×10⁻⁶ mol/L.

As to `CCOC(=O)[C@H](CCC(=O)O)NC(=O)c1ccc(N(C)Cc2cnc3nc(N)nc(N)c3n2)cc1`, in the series on CCRF-CEM, the ID50 is 6.2 ×10⁻⁶ mol/L.

For `CCCCOC(=O)CC[C@H](NC(=O)c1ccc(N(C)Cc2cnc3nc(N)nc(N)c3n2)cc1)C(=O)O`, the Retention_time in the series with Serum [28] turned out to be 3.2 min. Moreover, the figures for the ID50 (in the series with CCRF-CEM; in [22]) were 0.76 ×10⁻⁶ mol/L and 1.7 ×10⁻⁸ mol/L, respectively.

Consider `CCCCOC(=O)[C@H](CCC(=O)O)NC(=O)c1ccc(N(C)Cc2cnc3nc(N)nc(N)c3n2)cc1`, for which the Retention_time in the series on Serum [28] amounted to 5.1 min. Also, the results for the ID50 (with CCRF-CEM; in series [22]) were 2 ×10⁻⁶ mol/L and 1.7 ×10⁻⁸ mol/L, respectively.
